The species named for assay [1] is Canis familiaris. The assay can be described thus: In vitro activity in isolated canine cardiac Purkinje fibers given as 20 percent increase or decrease in action potential duration. Format: functional, Canis lupus familiaris, Purkinje fiber.
For assay [2], the species on record is Canis familiaris. The assay can be described thus: In vitro activity in isolated canine cardiac Purkinje fibers given as maximum change in APD95 from control value at 100 uM of concentration. The assay is classed as functional, Canis lupus familiaris, Purkinje fiber.
The species entered for assay [3] is Canis familiaris. The assay can be described thus: In vitro electrophysiological activity in isolated canine cardiac ventricular muscle tissue given as maximum change in FRP from control value at 100 uM concentration. The assay is classed as functional, Canis lupus familiaris.
The species entered for assay [4] is Canis familiaris. Nature of the assay: In vitro activity in isolated canine cardiac ventricular muscle tissue given as 20 percent increase or decrease in FRP (functional refractory period). The arrangement: species or system Canis lupus familiaris.
The species named for assay [5] is Canis familiaris. The assay can be described thus: In vitro activity in isolated canine cardiac Purkinje fibers given as maximum change in APD95 from control value at 10 uM of concentration. Format: functional, Canis lupus familiaris, Purkinje fiber.
Assay [6] is filed under the species Canis familiaris. Nature of the assay: In vitro electrophysiological activity in isolated canine cardiac ventricular muscle tissue given as maximum change in FRP from control value at 100 uM concentration; NR = Not reached. Format: functional. Particulars: Canis lupus familiaris.
For assay [7], the species on record is Canis familiaris. Nature of the assay: The compound was evaluated for the change in heart rate at MED for 0.1-30 dose range in PES model. The assay is classed as functional, Canis lupus familiaris.
For assay [8], the system named is Canis familiaris. The assay can be described thus: The compound was evaluated the change in functional refractory period at 10 mg/kg active dose. More on the design: species or system Canis lupus familiaris.
Assay [9] concerns Canis familiaris. The assay can be described thus: The compound was evaluated the change in blood pressure at 10 mg/kg active dose. Format: functional, Canis lupus familiaris.
Assay [10] is filed under the species Canis familiaris. Nature of the assay: The compound was evaluated for the change in blood pressure at MED for 0.1-30 dose range in PES model. The assay is classed as functional, Canis lupus familiaris.
In assay [11] the test system is Canis familiaris. Nature of the assay: The compound was evaluated the change in heart rate at 10 mg/kg active dose. The assay is classed as functional, Canis lupus familiaris.
The species named for assay [12] is Canis familiaris. Nature of the assay: The compound was evaluated for the mean effective dose for antiarrhythmic efficacy in PES model. To be noted: Canis lupus familiaris, Heart; read-out: MED. Format: functional.
Assay [13] is filed under the species Canis familiaris. The assay can be described thus: The compound was evaluated for the change in heart rate at MED for 0.1-10 dose range in PES model. The assay is classed as functional, Canis lupus familiaris.
For assay [14], the species on record is Canis familiaris. The assay can be described thus: The compound was evaluated for the change in blood pressure at MED for 0.1-10 dose range in PES model. The assay is classed as functional, Canis lupus familiaris.
The species entered for assay [15] is Canis familiaris. The assay can be described thus: The compound was evaluated for the change in blood pressure at MED for 0.3-30 dose range in PES model. Format: functional, Canis lupus familiaris.
The species named for assay [16] is Canis familiaris. Nature of the assay: The compound was evaluated for the change in heart rate at MED for 0.3-30 dose range in PES model. Format: functional, Canis lupus familiaris.
For assay [17], the species on record is Canis familiaris. Nature of the assay: The compound was evaluated for the change in blood pressure at MED for 0.3-10 dose range in PES model. The assay is classed as functional, Canis lupus familiaris.
For assay [18], the species on record is Canis familiaris. Nature of the assay: The compound was evaluated for the change in heart rate at MED for 0.3-10 dose range in PES model. The assay is classed as functional, Canis lupus familiaris.

Several values for one entry are separate records, joined by “and”; a condition that tells them apart may be missing. Identical values can stand only once.

As for `CS(=O)(=O)Nc1ccc(C(=O)C[n+]2ccsc2)cc1.[Cl-]`, in the assay filed under Canis familiaris [1], the “C20 APD95” value turned out to be 3.1 µM. In the assay listed under Canis familiaris [2], the APD95 is listed as 80%. Also, the FRP in the assay listed under Canis familiaris [3] was found to be 17%. In addition, the “C20 FRP” value in the assay filed under Canis familiaris [4] is 10 µM.
In the case of `C[n+]1ccn(CCc2ccc(O)cc2)c1.[Cl-]`, in the assay listed under Canis familiaris [1], the “C20 APD95” value was 6.2 µM. Further, the APD95 in the assay listed under Canis familiaris [5] was determined as 23%; in the assay listed under Canis familiaris [2] it was 20%. In the assay filed under Canis familiaris [3], this compound showed an FRP of 7%. For the same compound, in the assay filed under Canis familiaris [4], the “C20 FRP” value was determined as 50.1 µM.
With `CC(C(O)c1ccc(NS(C)(=O)=O)cc1)n1cc[n+](C)c1.[Cl-]` (configuration not stated), the “C20 APD95” value in the assay listed under Canis familiaris [1] came out at 4.2 µM. This compound also displayed an APD95 in the assay filed under Canis familiaris [2] of 36%. Also, the FRP in the assay filed under Canis familiaris [3] stood at 31%. Besides, in the assay listed under Canis familiaris [4], the “C20 FRP” value amounted to 11.2 µM.
The like results for `CC1=NCCN1CC(=O)c1ccc(NS(C)(=O)=O)cc1` were, in that order, 1.3 µM, 74%, 38% and 6.3 µM.
In the case of `Cc1n2c(c[n+]1C)C(c1ccc(NS(C)(=O)=O)cc1)CCC2.[I-]` (configuration not stated), in the assay listed under Canis familiaris [1], the “C20 APD95” value turned out to be 46.6 µM. This compound came in with an APD95 in the assay filed under Canis familiaris [2] of 27%. Further, in the assay filed under Canis familiaris [6], the FRP entry is “Not reached”.
As for `Cn1cc[n+](C)c1C(O)c1ccc(NS(C)(=O)=O)cc1.[I-]` (configuration not stated), the “C20 APD95” value in the assay listed under Canis familiaris [1] came out at 20.7 µM. This compound registered an APD95 in the assay filed under Canis familiaris [2] of 37%. Moreover, the FRP in the assay filed under Canis familiaris [3] is reported as 17%.
For `CC(C(=O)c1ccc(NS(C)(=O)=O)cc1)n1cc[n+](C)c1.[Cl-]` (configuration not stated), the “C20 APD95” value in the assay filed under Canis familiaris [1] is 3 µM. The same compound yielded an APD95 in the assay listed under Canis familiaris [2] of 65%. In the assay filed under Canis familiaris [3], this compound had an FRP of 22%. For the same compound, the “C20 FRP” value in the assay filed under Canis familiaris [4] turned out to be 7.7 µM.
The like results for `Cc1n2c(c[n+]1C)C(c1ccc(NS(C)(=O)=O)cc1)=CCC2.[I-]` were, in that order, 2.8 µM, 38%, 40% and 2.9 µM.
As for `CC(C)NCC(O)c1ccc(NS(C)(=O)=O)cc1` (configuration not stated) [SOTALOL], the “C20 APD95” value in the assay listed under Canis familiaris [1] is 14.4 µM. Besides, the figures for the HR in the assay filed under Canis familiaris [7] and with Canis familiaris [11] were -23% and -11%, respectively. For the same compound, the FRP in the assay with Canis familiaris [8] came out at 16%; in the assay listed under Canis familiaris [3], 23%. For the same compound, the BP is listed as 8% with Canis familiaris [9] and -23% in the assay filed under Canis familiaris [10]. Besides, the APD95 in the assay filed under Canis familiaris [2] is 48%. Moreover, in the assay filed under Canis familiaris [4], the “C20 FRP” value came out at 24.7 µM. Besides, the minimal effective dose in the assay filed under Canis familiaris [12] was 1.4 mg/kg.
Consider `C[n+]1ccn(CC(C)(O)c2ccc(NS(C)(=O)=O)cc2)c1.[Cl-]` (configuration not stated), for which the “C20 APD95” value in the assay listed under Canis familiaris [1] worked out at 1.5 µM. This compound also had an APD95 in the assay listed under Canis familiaris [2] of 71%. Further, the FRP in the assay listed under Canis familiaris [3] was 29%. In addition, in the assay listed under Canis familiaris [4], the “C20 FRP” value stood at 24.3 µM.
For `CCCCCCC[N+](CC)(CC)CCCCc1ccc(Cl)cc1` [CLOFILIUM], the “C20 APD95” value in the assay filed under Canis familiaris [1] came out at 0.26 µM. Moreover, the HR is -12% in the assay listed under Canis familiaris [13] and -18% in the assay on Canis familiaris [11]. Besides, the APD95 in the assay filed under Canis familiaris [5] is reported as 39%. Also, the FRP is listed as 22% with Canis familiaris [8] and 7% in the assay listed under Canis familiaris [3]. For the same compound, the BP with Canis familiaris [9] is reported as -4%; in the assay filed under Canis familiaris [14], 2%. Also, the minimal effective dose in the assay filed under Canis familiaris [12] was 0.63 mg/kg.
On to `C[n+]1ccn(/C=C/c2ccc(O)cc2)c1.[Br-]`, for which the “C20 APD95” value in the assay listed under Canis familiaris [1] stood at 10.2 µM. Also, the APD95 is 23% and 20% in the assay listed under Canis familiaris [5]; 27% in the assay listed under Canis familiaris [2].
For the compound `CC1=NCCN1CC(O)c1ccc(NS(C)(=O)=O)cc1.Cl` (configuration not stated), the “C20 APD95” value in the assay listed under Canis familiaris [1] turned out to be 0.6 µM. In addition, the FRP is 22% in the assay on Canis familiaris [8]; 42% and 38% in the assay filed under Canis familiaris [3]. In addition, the BP in the assay listed under Canis familiaris [15] was -1%; in the assay on Canis familiaris [9], 2%. This compound also yielded an APD95 in the assay filed under Canis familiaris [2] of 63%. The HR was -21% in the assay filed under Canis familiaris [16] and -23% in the assay with Canis familiaris [11]. Moreover, the “C20 FRP” value in the assay filed under Canis familiaris [4] was 1.1 µM and 1.9 µM. Besides, the minimal effective dose in the assay listed under Canis familiaris [12] stood at 2 mg/kg.
On to `C[n+]1ccn(CC(O)c2ccc(NS(C)(=O)=O)cc2)c1.[Cl-]` (configuration not stated), for which the BP in the assay filed under Canis familiaris [17] came to 0%; in the assay with Canis familiaris [9], 5%. For the same compound, the “C20 APD95” value in the assay listed under Canis familiaris [1] is 1.6 µM. The FRP in the assay with Canis familiaris [8] is listed as 21%; in the assay listed under Canis familiaris [3] it was 31%. Besides, the results for the HR in the assay listed under Canis familiaris [18] and with Canis familiaris [11] were -23% and -10%, respectively. Further, the APD95 in the assay listed under Canis familiaris [2] was 50%. Besides, the “C20 FRP” value in the assay filed under Canis familiaris [4] was 5.9 µM. Moreover, the minimal effective dose in the assay listed under Canis familiaris [12] is 6.5 mg/kg.

The values above are taken from ChEMBL document CHEMBL1123572, “Synthesis and antiarrhythmic activity of novel 3-alkyl-1-[omega-[4-[(alkylsulfonyl)amino]phenyl]-omega- hydroxyalkyl]-1H-imidazolium salts and related compounds. 2” (1987).
